From the supplement of paper PMC10290057
Several values for one entry are separate records, joined by “and”; a condition that tells them apart may be missing. Equal entries are not always repeated. Structures can show the parent of a compound that is named as a salt.

Experiments:
HCT116 [1] = assay: AC50 cell viability (CellTiter-Glo); higher = less potent; settings: 48 h
HCT116 [2] = assay: efficacy (fitted maximal change in viability relative to DMSO control); higher = less cytotoxic (negative = loss of viability); settings: 48 h
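Throughout, for AC50 cell viability (CellTiter-Glo): HCT116 colorectal carcinoma cells screened at five concentrations per compound, luminescent viability scaled between DMSO wells and empty wells on each plate, curves fitted per compound.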
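Throughout, for efficacy (fitted maximal change in viability relative to DMSO control): Luminescence-based viability readout, five doses per compound, normalized against on-plate DMSO and empty-well controls, followed by dose-response curve fitting for every drug.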

| Structure (SMILES) | AC50 cell viability (HCT116 [1]) | efficacy (HCT116 [2]) |
| --- | --- | --- |
| COc1cccc2c1C(=O)c1c(O)c3c(c(O)c1C2=O)C[C@@](O)(C(=O)CO)C[C@@H]3O[C@H]1C[C@H](N)[C@H](O[C@H]2CCCCO2)[C@H](C)O1 [Pirarubicin] | 0.934 µM and 0.468 µM | -90.5% and -67.3% |
| O=C([O-])C[C@H](O)C[C@H](O)/C=C/c1c(C2CC2)nc2ccccc2c1-c1ccc(F)cc1 [Pitavastatin calcium] | 14.8 µM | -103% |
| CN1CC/C(CC1)=C3\c4ccccc4CCc2sccc23 [Pizotifen] | 23.5 µM | -73.5% |
| CC(C)(C)c1[nH]cnc1/C=c1\[nH]c(=O)/c(=C/c2ccccc2)[nH]c1=O [Plinabulin] | 0.0525 µM | -58.4% |
| Cc1cc(Nc2ncc3c(n2)N(C)C(=O)N(c2cc(NC(=O)c4cccc(C(F)(F)F)c4)ccc2C)C3)n(C)n1 [Pluripotin] | 0.235 µM | -74% |
| CC[C@@H]([C@H](C)O)N1\N=C/N(C1=O)C2=CC=C(C=C2)N3CCN(CC3)C4=CC=C(OCC5CO[C@@](C5)(C[N]6C=NC=N6)C7=C(F)C=C(F)C=C7)C=C4 (some centres not stated) [Posaconazole] | 6.61 µM | -58.4% |
| C=CC(=O)N1CCC(Oc2cc3c(Nc4ccc(Cl)c(Cl)c4F)ncnc3cc2OC)CC1 [Poziotinib] | 18.6 µM | -106% |
| CCCCc1nc2cc(/C=C/C(=O)NO)ccc2n1CCN(CC)CC [Pracinostat] | 0.372 µM | -86.8% |
| C#CCC(Cc1cnc2nc(N)nc(N)c2n1)c1ccc(C(=O)N[C@@H](CCC(=O)O)C(=O)O)cc1 (some centres not stated) [Pralatrexate] | 0.00468 µM | -91.1% |
| COc1ccc(C(=O)c2c(C)n(CCN3CCOCC3)c3ccccc23)cc1 [Pravadoline] | 1.32 µM | -67.1% |
| COc1cccc(OCCCN)c1-c1cc(Nc2cnc(C#N)cn2)n[nH]1 [Prexasertib] | 3.72 µM | -111% |
| CC(=O)C1CCC2C3CC\C4=C\C(=O)CCC4(C)C3CCC12C (configuration not stated) [Progesterone] | 16.6 µM | -53.8% |
| C[C@@H]1O[C@@H](O[C@@H]2C=C3CC[C@@H]4[C@H](CC[C@]5(C)[C@@H](c6ccc(=O)oc6)CC[C@]45O)[C@@]3(C)CC2)[C@H](O)[C@H](O)[C@H]1O [Proscillaridin] | 0.00833 µM | -82.5% |
| c1ccc2c(Oc3nc(Nc4ccc(N5CCOCC5)cc4)c4ncn(C5CCCCC5)c4n3)cccc2c1 [Purmorphamine] | 11.8 µM | -34.8% |
| CC(C)[C@H](CO)Nc1nc(Nc2cccc(Cl)c2)c2ncn(C(C)C)c2n1 [Purvalanol A] | 13.2 µM | -110% |
| NCCOc1cc(C(=O)Nc2cc(OCCN)c3ccccc3n2)nc(C(=O)Nc2cc(OCCN)c3ccccc3n2)c1 [Pyridostatin] | 18.6 µM | -78.9% |
| CCc1nc(N)nc(N)c1-c1ccc(Cl)cc1 [Pyrimethamine] | 3.32 µM | -88.5% |
| O=C(CCCCCCC(=O)Nc1cccnc1)NO [Pyroxamide] | 2.95 µM | -87.9% |
| OC[C@H](Cc1ccccc1)Nc1nc(Oc2ccc3c(c2)CCC3)nc2c1ncn2Cc1ccc(-c2ccccc2)cc1 [QS11] | 9.34 µM | -49.7% |
| CCN(CC)CCCC(C)Nc1c2ccc(Cl)cc2nc2ccc(OC)cc12.Cl.Cl.O.O (configuration not stated) [Quinacrine] | 8.33 µM | -90.5% |
| Cn1cc(CNCC2CCN(c3ncc(C(=O)NO)cn3)CC2)c2ccccc21 [Quisinostat] | 0.0742 µM | -81.9% |

| Structure (SMILES) | AC50 cell viability (HCT116 [1]) | efficacy (HCT116 [2]) |
| --- | --- | --- |
| CC(C)(C)c1cc(NC(=O)Nc2ccc(-c3cn4c(n3)sc3cc(OCCN5CCOCC5)ccc34)cc2)no1 [Quizartinib] | 13.2 µM | -74.1% |
| COc1cc(Nc2ncc(F)c(Nc3ccc4c(n3)NC(=O)C(C)(C)O4)n2)cc(OC)c1OC [R-406] | 3.72 µM | -30.6% |
| COc1ccc(F)c(F)c1C(=O)c1cnc(NC2CCN([S+](C)(=O)[O-])CC2)nc1N [R-547] | 0.417 µM | -67.8% |
| COC1=C(F)C=C\2C(=C1)\N=C/3NNC(=C3\N=C2C4=CC=CC=C4Cl)/C [R-1530] | 14.8 µM | -73.2% |
| FC(F)(F)c1ccc(Nc2nc3cc(Oc4ccnc(-c5ncc(C(F)(F)F)[nH]5)c4)ccc3[nH]2)cc1 [RAF-265 derivative] | 14.8 µM | -84.8% |
| Cc1ncc(NC(=O)c2cccc(C(F)(F)F)c2)cc1-c1cnc(OC2CCOCC2)c(N2CCOCC2)c1 [RAF-709] | 0.525 µM | -84.5% |
| Cc1cc(Nc2cc(NC(=O)c3c(Cl)cccc3Cl)ccn2)nc(N)n1 [RO495] | 1.18 µM | -74.4% |
| COc1cc(C(N)=O)ccc1NC(=O)[C@@H]1N[C@@H](CC(C)(C)C)[C@@]2(C(=O)Nc3cc(Cl)ccc32)[C@H]1c1cccc(Cl)c1F [RO8994] | 0.934 µM | -110% |
| COC(=O)c1ccc([C@H]2c3[nH]c4ccccc4c3C[C@H](C(=O)OC)N2C(=O)CCl)cc1 [RSL3] | 11.8 µM | -110% |
| COC1=CC(=C2C(=O)N\C(=N/C2=C1)C3=CC(=C(OCCO)C(=C3)C)C)OC [RVX-208] | 18.6 µM | -41.5% |
| COc1cc(OC)cc(N2CCN(C(=O)Nc3nc4cc(F)ccc4nc3OC)CC2)c1 [RX-5902 (SUPINOXIN)] | 2.63 µM | -60% |
| COCCCOc1ccnc(CS(=O)c2nc3ccccc3[n-]2)c1C.[Na+] (configuration not stated) [Rabeprazole] | 16.6 µM | -43.4% |
| Cc1cnc(NC(=O)Nc2cc(Br)c(C)cc2OC[C@@H]2CNCCO2)cn1 [Rabusertib] | 16.6 µM | -103% |
| CC(C)(c1ccc(OCC(O)CO)cc1)c1ccc(OCC(O)CCl)cc1 (stereo not drawn) [Ralaniten (EPI-001)] | 18.6 µM | -37% |
| O=C(c1ccc(OCCN2CCCCC2)cc1)c1c(-c2ccc(O)cc2)sc2cc(O)ccc12 [Raloxifene hydrochloride] | 20.9 µM | -94.4% |
| C[N]1N=CC=C1NC2=NC=CC(=N2)C\3=C\C(=O)N(\C=C3)[C@H](CO)C4=CC(=C(Cl)C=C4)F [Ravoxertinib] | 14.8 µM | -116% |
| CO[C@@H]1[C@@H](O)[C@H](O)[C@@H](n2c3c(Cl)cccc3c3c4c(c5c6cccc(Cl)c6[nH]c5c32)C(=O)NC4=O)O[C@H]1CO [Rebeccamycin] | 0.934 µM | -88.9% |
| COc1cc(F)c(F)c(Nc2ccc(I)cc2F)c1N[S+](=O)([O-])C1(C[C@H](O)CO)CC1 [Refametinib] | 2.63 µM | -84.3% |
| CNC(=O)c1cc(Oc2ccc(NC(=O)Nc3ccc(Cl)c(C(F)(F)F)c3)c(F)c2)ccn1 [Regorafenib] | 5.25 µM | -85.3% |
| CONC(=O)Nc1ccc(-c2sc3c(c2CN(C)C)c(=O)n(-c2ccc(OC)nn2)c(=O)n3Cc2c(F)cccc2F)cc1 [Relugolix] | 23.5 µM | -67.3% |
